One data set deals with T1, DPP-IX (Homo sapiens, UniProt Q86TI2).
T1 construct: The full length cDNAs for human DPP-VII, DPP-VIII, DPP-IX, and FAP were obtained from Open Biosystems; 6xHis (C); made in house
The data set is described as follows: DPP-IX IC50 assay (Ala-Pro AMC). It counts as biochemical. On the procedure: Materials. S9 insect cells and Sf-900 II SFM media were from Invitrogen. Anti-FLAG M2 immunoaffinity gel was from Sigma. Gly-Pro-AMC, Lys-Pro AMC, and Ala-Pro AMC were from Enzyme Systems. IC50 calculations were performed by non-linear regression analysis using Prism software (GraphPad). Preparation of DPP-VII, DPP-VIII, DPP-IX, and FAP baculovirus constructs. The full length cDNAs for human DPP-VII, DPP-VIII, DPP-IX, and FAP were obtained from Open Biosystems. The cDNAs were cloned into the pFastBac vector with the addition of an N-terminal FLAG tag on DPP-VII, C-terminal 6xHis tags on DPP-VIII and DPP-IX, and an N-terminal 6xHis tag on FAP (Sun 2002, Qi 2003, and Chen 2004). Baculovirus was prepared using the Bac-to-Bac Baculovirus Expression System (Invitrogen). The cDNAs in the final baculovirus constructs were sequence verified. Baculovirus expression. S9 cells were grown to mid log phase at 27C with shaking at 125 RPM and then adjusted to 2×10E6/ml just prior to baculovirus infection. Infection with DPP-VII, DPP-VIII, DPP-IX, and FAP baculoviral constructs were all performed at an MOI of 4. […] Recombinant DPPs were diluted in reaction buffer to give fluorescence values of 5000-20000 counts in the “enzyme only wells” 20 min after addition of substrate at 27° C. […] Fluorescence in each well was measured at settings of 380/460 nm. […]

A further data set has as its system dogs. Description: Toxicity in dogs, escalated oral dose study. Format: in vivo. Conditions: at 2.0 mg/kg, within 2-4 hours of dosing. On the procedure: The 2.0 mg/kg dose of compound 19 correlated with the time above the DPP-VIII IC90 but not with the time above DPP-IX IC90. By comparison, a previously known selective inhibitor (compound 10 in U.S. patent application Ser. […]

SMILES strings stand for the structures.

T1 sequence (Q86TI2 whole entry): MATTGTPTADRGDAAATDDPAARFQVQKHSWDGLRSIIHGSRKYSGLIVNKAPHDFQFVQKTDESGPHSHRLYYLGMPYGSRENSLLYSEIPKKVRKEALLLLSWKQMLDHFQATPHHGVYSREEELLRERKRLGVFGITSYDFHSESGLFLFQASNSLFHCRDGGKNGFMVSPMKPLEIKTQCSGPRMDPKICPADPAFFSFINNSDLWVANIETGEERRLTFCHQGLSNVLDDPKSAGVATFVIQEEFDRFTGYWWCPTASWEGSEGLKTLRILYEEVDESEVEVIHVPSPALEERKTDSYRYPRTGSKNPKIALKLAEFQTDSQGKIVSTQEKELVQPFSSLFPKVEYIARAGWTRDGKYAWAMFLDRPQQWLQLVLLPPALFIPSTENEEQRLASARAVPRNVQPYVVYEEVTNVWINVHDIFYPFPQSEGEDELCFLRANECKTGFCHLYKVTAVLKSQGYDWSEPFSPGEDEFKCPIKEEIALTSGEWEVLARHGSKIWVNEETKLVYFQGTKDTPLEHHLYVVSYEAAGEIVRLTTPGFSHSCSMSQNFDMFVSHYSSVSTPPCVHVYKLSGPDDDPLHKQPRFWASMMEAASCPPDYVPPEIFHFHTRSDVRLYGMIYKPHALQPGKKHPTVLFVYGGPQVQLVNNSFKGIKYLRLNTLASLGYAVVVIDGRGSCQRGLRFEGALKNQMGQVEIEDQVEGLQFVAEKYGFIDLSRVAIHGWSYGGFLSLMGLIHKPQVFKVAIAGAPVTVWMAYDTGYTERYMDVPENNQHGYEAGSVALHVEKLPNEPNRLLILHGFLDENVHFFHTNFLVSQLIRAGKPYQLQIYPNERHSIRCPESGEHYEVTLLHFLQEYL

With `O=C(CNC1CCCC1)N1CCC[C@H]1B(O)O` [Compound 19], the “inhibition of DPP-IX (in words)” value against DPP-IX is given as “potent inhibitor”. Also, the toxicity in dogs entry with dogs was “severe emesis and diarrhea”.

For the origin of these results see patent US7825139B2, “Compounds and methods for selective inhibition of dipeptidyl peptidase-IV” (Forest Laboratories Holdings Limited (BM), priority 2005, dated 2010).
